Assay results published in patent US5741476A, “Polyhydric phenol compounds” (Mallinckrodt Medical, Inc., priority 1992, dated 1998).
Like-named read-outs stand apart in the source and are kept apart here. One block for each compound: values may come before it.

Experiments:
[1] = in vivo distribution in rats
Protocol: The in vivo distribution in rats is determined by injecting approx. 10 μCi of the compound to be evaluated into the tail vein of the test animals. The test animals are sacrificed at appropriate time intervals after injection and the radioactivity of the organs of interest is measured by gamma scintillation counting.

erythrocytes = assay: binding of 3-125I-phloretin to erythrocytes; design: species or system human
Protocol: (§1) In order to be able to compare the binding to cancer cells with the binding to normal cells, the following experiments are carried out. Binding to certain cancer cells, viz. YAK1 mice lymphoma cells (10^6 cells/ml incubation medium) is compared with binding to erythrocytes of a young healthy person (10^6 cells/ml incubation medium), because erythocytes are typical reference cells for glucose transport studies.
(§2) The incubation media are respectively:
(§3) RPMI-buffer pH=8; 11 mM in glucose, and
(§4) RPMI buffer/0.9% NaCl: 1/1.
(§5) Each 1 ml essay contains 5% of foetal calf serum and is spiked (50 μl) with 3-^125 I-phloretin (initial activity is measured).
(§6) After 15 min incubation at 37° C., the suspension is centrifuged and the precipitate is resuspended with 1 ml cold buffer which is discarded after a second centrifugation. The final radioactive precipitate is suspended in 1 ml water and measured. The bound radioactivity is related to the initial activity.
Saturation binding of 3-^125 I-phloretin to 5.10^6 erythrocytes is performed in RPMI-buffer and Tris-buffer of pH 8. The binding experiments are performed at pH 8, because this is the pH of the RPMI buffer needed for optimum YAK1 cells growth. Incubation for 15 min at 37° C. Inhibition is studied by pre-incubation (15 min, 37° C.) of the erythrocytes in buffer containing 2.10^-4 M 3-Br-phloretin. After centrifugation, the Br-phloretin-containing solution is discarded and the precipitate washed with ice-cooled buffer. After a second centrifugation, the supernatant is discarded and the cells are resuspended in buffer containing 3^125 I-phloretin. After incubation for 15 min at 37° C., the same above procedure is applied. Phloretin is a weak acid (pK is approx. 7.3); only the uncharged (non-dissociated) form inhibits red cell glucose transport (Jennings et al., see above). Therefore the values mentioned hereinafter are corrected for dissociation.
When starting from small amounts (0.1×10^-10 M) N.C.A. 3-^125 I-phloretin up to higher concentrations and C.A. conditions (3-Br-phloretin used as analogue), two types of binding are observed: […]

YAK1 mice lymphoma cells = assay: binding of 3-125I-phloretin to YAK1 lymphoma cells
Protocol: as §1, §2, §3, §4, §5, §6

hexokinase = assay: hexokinase-model: inhibition of hexokinase-catalysed 6-phosphorilation of glucose; type: biochemical
Text: In vitro evaluation of 3-halo-phloretin compounds using the "hexokinase-model"
The "hexokinase-model" is used as a model system for the glucose-transport proteins, which play a paramount role in the glucose metabolism.
The mechanism of the glucose--glucosetransportprotein interaction and following transport through the cell membrane of glucose, as described in literature (Scientific American, January 1992, p. 32-39; Biochemistry, Vol. 28, No. 20, 1989, p. 8221-8227), and the induced-fit model described for glucose 6-phosphorilation by hexokinase (Cell Biology, 1989) show a certain analogy which let to assume, that the interaction between a potential glucose transport inhibitor with hexokinase can be a valuable in vitro model if this inhibition is competitive for glucose.
The substitution of halogen such as a bromine or iodine atom on the 3-position of the 4-hydroxyl-phenylpropion part of phloretin increases the inhibition potency as shown as follows:
Inhibition of hexokinase catalyses 6-phosphorilation of glucose by deoxyglucose, phloretin and 3-bromo-phloretin.

[2] = binding in human whole blood (RB/plasma distribution, reversibility); type: in vitro ADME; conditions: for blood plasma ratio at 0.25 h / blood plasma ratio: human; for blood plasma ratio at 0.25 h: 37° C., 15 min, read-out: RB/plasma ratio after re-equilibration
Protocol: In vitro experiments: binding in human whole blood
Jennings et al. [J. Gen. Phys., 1967, 67, 381] have reported the binding of phloretin to whole red blood cells. Their results let to assume that phloretin should enter the erythrocytes and bind to haemoglobine. This should mean that a phloretin-based radiotracer should not be suitable for in vivo use. Therefore the reversibility of the binding is checked. For this purpose 3-^123 I-phloretin is added to whole heparinised blood. This is centrifuged, yielding serum S-*I and red blood portion RB-*I. S-*I and non-radioactive RB (1/1) and respectively non-radioactive S and RB-*I (1/1) are incubated at 37° C. for 15 min and centrifuged. The radioactivity of all the weighed aliquots is measured in a well NaI(T1) detector.

[3] = weak acid; cited from earlier work

saturability of uptake in heart and muscle ([1]; decreased uptake in the presence of Br-phloretin): apparently saturable | uptake in the lungs (L/B) ([1]; i.v. tail vein, N.C.A. and C.A.): high uptake in the lungs
SMILES: O=C(CCc1ccc(O)c(I)c1)c1c(O)cc(O)cc1O [3-*I-phloretin]

bound/free value of 3-125I-phloretin (erythrocytes; erythrocytes pre-incubated with 2×10^-4 M 3-Br-phloretin, blank 0.193, average of 5 experiments): 0.081 | inhibition of 3-125I-phloretin binding (erythrocytes; pre-incubation with 2×10^-4 M 3-Br-phloretin, compared with blank): 58%
SMILES: O=C(CCc1ccc(O)c(Br)c1)c1c(O)cc(O)cc1O [3-Br--phloretin, 3-bromophloretin]
decreased binding of 3-125I-phloretin (YAK1 mice lymphoma cells; co-incubation of 3-Br-phloretin, YAK1 cells, 15 min): 30%

potency as hexokinase inhibitor relative to the original phloretin (hexokinase; versus phloretin): approx. 2 times
SMILES: O=C(CCc1ccc(O)c(I)c1)c1c(O)cc(O)cc1O [3-I--phloretin, 3-I-phloretin]

reversibility of binding to plasma-proteins and RB [2]: bound reversibly | blood plasma ratio at 0.25 h ([2]; N.C.A. radioactivity bound to RB, re-equilibrated with non-radioactive plasma): 0.15 | blood plasma ratio at 0.25 h ([2]; N.C.A. radioactivity bound to plasma, re-equilibrated with non-radioactive RB): 0.13 | blood plasma ratio ([2]; in the presence of non-radioactive Br-phloretin or phloretin): 0.32 | blood plasma ratio ([2]; non-carrier-added (N.C.A.) conditions): 0.215 | bound/free ratio (erythrocytes; N.C.A., 10^6 erythrocytes, 15 min 37° C., average of at least 20 experiments): 0.021 | influence of glucose on binding (erythrocytes; presence of 3.10^-2 -5.10^-3 M glucose): hardly influences the binding | Bmax (erythrocytes; saturation binding 0.1 to 1.2 10^-10 M, Scatchard plot, pH 8): 4.7×10^-15 mol/10^6 erythrocytee | Kd (erythrocytes; saturation binding 0.1 to 1.2 10^-10 M, Scatchard plot, pH 8, 15 min 37° C., corrected for dissociation, read-out: apparent Kd): 0.08 nM
SMILES: O=C(CCc1ccc(O)c([125I])c1)c1c(O)cc(O)cc1O [3-^125 I-phloretin]
bound/free ratio (YAK1 mice lymphoma cells; N.C.A., 10^6 YAK1 cells, 15 min 37° C., average of at least 20 experiments): 0.048 | increase of uptake in YAK1 lymphoma cancer cells as compared to erythrocytes (YAK1 mice lymphoma cells; YAK1 versus erythrocytes): > 2 factor

type of inhibition of hexokinase activity (hexokinase; Lineweaver-Burck plots, versus glucose): competitive
SMILES: O=C(CCc1ccc(O)cc1)c1c(O)cc(O)cc1O [phloretin, reference compound]
pK [3]: approx. 7.3
